SMILES strings stand for the structures.

In patent US20110053897A1 (IRM LLC, priority 2009, published 2011) one finds IC50 data, which are given here for 69 compounds.

This assay deals with T1, Syk kinase (Homo sapiens, UniProt P43405).
T1 construct: purchased
In words: Syk kinase inhibition, Caliper LabChip off-chip mobility-shift kinase assay. The assay is classed as biochemical. As to conditions: read-out: Syk Enzyme IC50. The method in brief: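 Purified Syk pre-incubated 15 min with compound in 100 mM HEPES pH 7.5, 1 mM DTT, 10 mM MgCl2 or MnCl2, 0.002% Brij-35, then 1.5 μM fluorescein peptide and ATP at apparent KM added; 1–1.5 h at room temperature, 4% DMSO, EDTA stop. Microfluidic mobility-shift product/substrate conversion gave % inhibition; IC50 from 12-point series (10–0.00003 μM) by 4-parameter fit.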
For orientation: IC50 means the point on the concentration scale where inhibition reaches its midpoint. On to `Cc1ccnc(Nc2cc3ccn(CCO)c(=O)c3c(N[C@H]3CCOC3)n2)c1` [compound 369], for which the IC50 worked out at 0.012 µM.

In the case of `COc1ccc(Nc2nc(Nc3cc(C)ccn3)cc3cc[nH]c(=O)c23)cc1OC` [compound 371], the concentration for half-maximal inhibition (IC50) came to 0.233 µM.

`Cc1ccnc(Nc2cc3ccn(C)c(=O)c3c(Nc3ccc(C4CCOCC4)nc3)n2)c1` [compound 372]: the IC50 worked out at 0.393 µM.

In the case of `C[C@@H](CO)Nc1nc(Nc2cnccn2)cc2ccn(CCO)c(=O)c12` [compound 373], the IC50 is 0.027 µM.

On to `O=c1c2c(N[C@H]3CCOC3)nc(Nc3cnccn3)cc2ccn1CCO` [compound 375], for which the 50% inhibitory concentration (IC50) stood at 0.014 µM.

For the compound `O=c1c2c(N[C@H]3CC[C@@H](O)CC3)nc(Nc3cnccn3)cc2ccn1CCO` [compound 376], the concentration for half-maximal inhibition (IC50) was determined as 0.006 µM.

Regarding `[2H]C([2H])([2H])n1ccc2cc(Nc3cnccn3)nc(N[C@H]3CC[C@@H](O)CC3)c2c1=O` [compound 377], the IC50 was determined as 0.034 µM.

For the compound `[2H]C([2H])([2H])n1ccc2cc(Nc3cc(C)ccn3)nc(N[C@H]3CC[C@@H](O)CC3)c2c1=O` [compound 378], the 50% inhibitory concentration (IC50) came to 0.02 µM.

On to `Cn1ccc2cc(Nc3cc(Cl)ccn3)nc(N[C@H]3CC[C@@H](O)CC3)c2c1=O` [compound 379], for which the IC50 worked out at 0.036 µM.

For `CCNC(=O)c1ccc(Nc2nc(Nc3cc(C)ccn3)cc3ccn(C)c(=O)c23)cc1` [compound 380], the half-maximal inhibitory concentration (IC50) is 0.379 µM.

Regarding `CCNC(=O)c1ccc(Nc2nc(Nc3cnccn3)cc3ccn(C)c(=O)c23)cc1` [compound 381], the IC50 is 0.604 µM.

As to `CCNC(=O)c1ccc(Nc2nc(Nc3cc(Cl)ccn3)cc3ccn(C)c(=O)c23)cc1` [compound 382], the 50% inhibitory concentration (IC50) was determined as 0.362 µM.

On to `CCn1ccc2cc(Nc3cc(Cl)ccn3)nc(N[C@H]3CC[C@@H](O)CC3)c2c1=O` [compound 383], for which the concentration for half-maximal inhibition (IC50) worked out at 0.026 µM.

Regarding `O=c1c2c(N[C@H]3CC[C@@H](O)CC3)nc(Nc3cc(Cl)ccn3)cc2ccn1CCO` [compound 384], the half-maximal inhibitory concentration (IC50) was 0.017 µM.

As for `Cn1ccc2cc(Nc3cc(Cl)ccn3)nc(N[C@H]3CC[C@H](O)CC3)c2c1=O` [compound 385], the concentration for half-maximal inhibition (IC50) worked out at 0.028 µM.

`Cc1ccnc(Nc2cc3ccn(CCN(C)C)c(=O)c3c(N[C@H]3CC[C@@H](O)CC3)n2)c1` [compound 386]: the half-maximal inhibitory concentration (IC50) stood at 0.049 µM.

As to `CN(C)CCn1ccc2cc(Nc3cnccn3)nc(N[C@H]3CC[C@@H](O)CC3)c2c1=O` [compound 387], the half-maximal inhibitory concentration (IC50) turned out to be 0.033 µM.

As for `CN(C)CCn1ccc2cc(Nc3cc(Cl)ccn3)nc(N[C@H]3CC[C@@H](O)CC3)c2c1=O` [compound 388], the IC50 was determined as 0.042 µM.

As to `Cn1ccc2cc(Nc3cnccn3)nc(Nc3cccc(S(C)(=O)=O)c3)c2c1=O` [compound 390], the concentration for half-maximal inhibition (IC50) was 0.751 µM.

Take `CCn1ccc2cc(Nc3cnc(C)cn3)nc(N[C@H]3CC[C@@H](O)CC3)c2c1=O` [compound 392]: the 50% inhibitory concentration (IC50) came out at 0.193 µM.

On to `CCn1ccc2cc(Nc3cc(C)c(F)cn3)nc(N[C@H]3CC[C@@H](O)CC3)c2c1=O` [compound 393], for which the IC50 worked out at 0.09 µM.

In the case of `CCn1ccc2cc(Nc3cnc(C)cn3)nc(N[C@@H](C)CO)c2c1=O` [compound 394], the concentration for half-maximal inhibition (IC50) is 0.384 µM.

Take `CCn1ccc2cc(Nc3cc(C)c(F)cn3)nc(N[C@@H](C)CO)c2c1=O` [compound 395]: the IC50 came out at 0.085 µM.

Turning to `[2H]C([2H])([2H])n1ccc2cc(Nc3cc(C)ccn3)nc(N[C@@H](C)CO)c2c1=O` [compound 398], the IC50 was 0.046 µM.

On to `Cc1ccnc(Nc2cc3cc[nH]c(=O)c3c(N3CC[C@@H](CO)C3)n2)c1` [compound 399], for which the IC50 was 0.998 µM.

Turning to `Cc1ccnc(Nc2cc3cc[nH]c(=O)c3c(N3CC[C@H](CO)C3)n2)c1` [compound 400], the half-inhibitory concentration (IC50) stood at 0.897 µM.

For `Cc1ccnc(Nc2cc3cc[nH]c(=O)c3c(N3CC[C@@H](O)C3)n2)c1` [compound 401], the concentration for half-maximal inhibition (IC50) was found to be 0.967 µM.

For `[2H]C([2H])([2H])n1ccc2cc(Nc3cnccn3)nc(N[C@@H](C)CO)c2c1=O` [compound 402], the concentration for half-maximal inhibition (IC50) stood at 0.0457 µM.

Regarding `[2H]C([2H])([2H])n1ccc2cc(Nc3cc(Cl)ccn3)nc(N[C@@H](C)CO)c2c1=O` [compound 403], the IC50 is 0.0604 µM.

With `Cc1ccnc(Nc2cc3ccn(CCO)c(=O)c3c(Nc3ccc(S(C)(=O)=O)cc3)n2)c1` [compound 404], the IC50 is 0.0634 µM.

Take `CS(=O)(=O)c1ccc(Nc2nc(Nc3cnccn3)cc3ccn(CCO)c(=O)c23)cc1` [compound 405]: the IC50 amounted to 0.235 µM.

For `CCn1ccc2cc(Nc3cc(C)ccn3)nc(NC[C@H]3CC[C@H](O)C3)c2c1=O` [compound 410], the IC50 was 0.12 µM.

As for `CCn1ccc2cc(Nc3ncccn3)nc(NC[C@H]3CC[C@H](O)C3)c2c1=O` [compound 411], the 50% inhibitory concentration (IC50) worked out at 0.071 µM.

In the case of `CCn1ccc2cc(Nc3cc(C)ccn3)nc(NC[C@@H]3CC[C@@H](O)C3)c2c1=O` [compound 412], the half-maximal inhibitory concentration (IC50) stood at 0.224 µM.

With `CCn1ccc2cc(Nc3ncccn3)nc(NC[C@@H]3CC[C@@H](O)C3)c2c1=O` [compound 413], the IC50 is 0.0462 µM.

For `CCn1ccc2cc(Nc3cc(C)ccn3)nc(NC[C@@H]3CC[C@](C)(O)C3)c2c1=O` [compound 414], the IC50 was 0.287 µM.

Consider `CCn1ccc2cc(Nc3cnccn3)nc(NC[C@@H]3CC[C@](C)(O)C3)c2c1=O` [compound 415], for which the IC50 amounted to 0.172 µM.

Consider `CCn1ccc2cc(Nc3cc(C)ccn3)nc(NC[C@H]3CC[C@@](C)(O)C3)c2c1=O` [compound 416], for which the half-maximal inhibitory concentration (IC50) is 0.176 µM.

As to `CCn1ccc2cc(Nc3cnccn3)nc(NC[C@H]3CC[C@@](C)(O)C3)c2c1=O` [compound 417], the IC50 is 0.0956 µM.

Turning to `CCn1ccc2cc(Nc3cc(C)ccn3)nc(N[C@@H]3CCC[C@@H]3O)c2c1=O` [compound 418], the IC50 is 0.182 µM.

As to `CCn1ccc2cc(Nc3cnccn3)nc(N[C@@H]3CCC[C@@H]3O)c2c1=O` [compound 419], the half-maximal inhibitory concentration (IC50) was 0.0944 µM.

`CCn1ccc2cc(Nc3cc(C)ccn3)nc(N[C@H]3CCC[C@H]3O)c2c1=O` [compound 420]: the half-inhibitory concentration (IC50) was found to be 0.011 µM.

In the case of `CCn1ccc2cc(Nc3cnccn3)nc(N[C@H]3CCC[C@H]3O)c2c1=O` [compound 421], the IC50 was determined as 0.0236 µM.

In the case of `CCn1ccc2cc(Nc3cc(C)ccn3)nc(N[C@H]3CCC[C@@H]3O)c2c1=O` [compound 422], the IC50 was 0.0861 µM.

Turning to `CCn1ccc2cc(Nc3cnccn3)nc(N[C@H]3CCC[C@@H]3O)c2c1=O` [compound 423], the concentration for half-maximal inhibition (IC50) amounted to 0.0524 µM.

Regarding `CCn1ccc2cc(Nc3cc(C)ccn3)nc(N[C@H]3CC[C@@H](O)C3)c2c1=O` [compound 424], the half-inhibitory concentration (IC50) worked out at 0.047 µM.

For the compound `CCn1ccc2cc(Nc3cnccn3)nc(N[C@H]3CC[C@@H](O)C3)c2c1=O` [compound 425], the half-maximal inhibitory concentration (IC50) is 0.316 µM.

`CCn1ccc2cc(Nc3cc(C)ccn3)nc(N[C@@H]3CC[C@H](O)C3)c2c1=O` [compound 426]: the IC50 turned out to be 0.0708 µM.

For the compound `CCn1ccc2cc(Nc3cnccn3)nc(N[C@@H]3CC[C@H](O)C3)c2c1=O` [compound 427], the 50% inhibitory concentration (IC50) turned out to be 0.0486 µM.

For the compound `Nc1ncc(-c2cc3c(F)c[nH]c(=O)c3c(Nc3ccc(N4CCOCC4)cc3)n2)cn1` [compound 428], the half-inhibitory concentration (IC50) was found to be 0.108 µM.

On to `O=c1[nH]cc(F)c2cc(-c3cncnc3)nc(Nc3ccc(N4CCOCC4)cc3)c12` [compound 429], for which the IC50 stood at 0.055 µM.

`COc1ncc(-c2cc3c(F)c[nH]c(=O)c3c(Nc3ccc(N4CCOCC4)cc3)n2)cn1` [compound 430]: the half-maximal inhibitory concentration (IC50) was 0.12 µM.

On to `COc1cncc(-c2cc3c(F)c[nH]c(=O)c3c(Nc3ccc(N4CCOCC4)cc3)n2)n1` [compound 432], for which the IC50 amounted to 0.623 µM.

`COc1cncc(-c2cc3cc[nH]c(=O)c3c(Nc3ccc(CCN4CC5CNCC5C4)cc3)n2)n1` (stereo not drawn) [compound 433]: the IC50 stood at 0.051 µM.

Consider `COc1cncc(-c2cc3cc[nH]c(=O)c3c(Nc3ccc(CCN4CCCN(C)CC4)cc3)n2)n1` [compound 434], for which the concentration for half-maximal inhibition (IC50) is 0.037 µM.

For `CN1CCCN(CCc2ccc(Nc3nc(-c4cncnc4)cc4cc[nH]c(=O)c34)cc2)CC1` [compound 435], the IC50 turned out to be 0.086 µM.

Consider `COc1ncc(-c2cc3cc[nH]c(=O)c3c(Nc3ccc(CCN4CCCN(C)CC4)cc3)n2)cn1` [compound 436], for which the half-maximal inhibitory concentration (IC50) is 0.14 µM.

Turning to `Cc1ccc(-c2cc3cc[nH]c(=O)c3c(Nc3ccc(CCN4CCCN(C)CC4)cc3)n2)cn1` [compound 437], the IC50 was determined as 0.102 µM.

`CCN1CCN(CCc2ccc(Nc3nc(-c4cncnc4)cc4c(F)c[nH]c(=O)c34)cc2)CC1` [compound 438]: the IC50 was 0.289 µM.

With `CCN1CCN(CCc2ccc(Nc3nc(-c4cnc(OC)nc4)cc4c(F)c[nH]c(=O)c34)cc2)CC1` [compound 439], the IC50 was 0.474 µM.

Consider `CCN1CCN(CCc2ccc(Nc3nc(-c4cncc(OC)n4)cc4c(F)c[nH]c(=O)c34)cc2)CC1` [compound 440], for which the half-maximal inhibitory concentration (IC50) is 0.343 µM.

Consider `CCN1CCN(CCc2ccc(Nc3nc(-c4cnn(C)c4)cc4cc[nH]c(=O)c34)cc2)CC1` [compound 441], for which the IC50 came to 0.058 µM.

On to `CCN1CCN(CCc2ccc(Nc3nc(-c4cnn(C)c4)cc4c(F)c[nH]c(=O)c34)cc2)CC1` [compound 442], for which the IC50 came to 0.107 µM.

Take `CCN1CCN(CCc2ccc(Nc3nc(-c4ccc(C)nc4)cc4c(F)c[nH]c(=O)c34)cc2)CC1` [compound 443]: the IC50 turned out to be 0.419 µM.

Regarding `CCN1CCN(CCc2ccc(Nc3nc(-c4cnn(CC(C)C)c4)cc4cc[nH]c(=O)c34)cc2)CC1` [compound 444], the half-maximal inhibitory concentration (IC50) came to 0.122 µM.

Regarding `CCN1CCN(CCc2ccc(Nc3nc(-c4cnn(CC(C)C)c4)cc4c(F)c[nH]c(=O)c34)cc2)CC1` [compound 445], the IC50 is 0.3 µM.

For the compound `COCCNc1nc(-c2cnc(N)nc2)cc2cc[nH]c(=O)c12` [compound 447], the IC50 is 0.101 µM.

Turning to `COC[C@H](C)Nc1nc(-c2cnc(N)nc2)cc2cc[nH]c(=O)c12` [compound 448], the IC50 came to 0.125 µM.

As for `Nc1ncc(-c2cc3cc[nH]c(=O)c3c(NC[C@@H](O)c3cccc(Cl)c3)n2)cn1` [compound 449], the 50% inhibitory concentration (IC50) turned out to be 0.384 µM.
